Experimental data from patent publication US12036226B2, “Methods of treating subjects having diabetes with chronic kidney disease” (Poxel SA, priority 2018, dated 2024).
Like-named read-outs stand apart in the source and are kept apart here.

Experiment: Phase 1 study of pharmacokinetics and safety of imeglimin in subjects with renal impairment compared to normal renal function
Type: in vivo, human
Conditions: for concentration at 8 day / Vd/F / Tmax / Cmax / half-life / AUC / AUC(0-t) / CL renal: human, po; for concentration at 8 day / Vd/F / Tmax / Cmax / half-life / AUC / AUC(0-t): plasma; for Vd/F: read-out: Vz/F; for Tmax: median, read-out: tmax; for AUC: read-out: AUC0-τ; for CL renal: urine; for difference in exposure vs normal subjects: Day 8
Description: An open-label, parallel-group, multi-center, multiple oral dose study to investigate the pharmacokinetics of imeglimin in subjects with renal impairment compared to subjects with normal renal function was completed.
In this study, a total of 51 subjects received imeglimin at the daily dose of 1000 mg, administered either as 1000 mg QD (once a day) or 500 mg bid (twice a day) during 8 days. […] Twenty-four control subjects with normal renal function were matched to mild and moderate (10 receiving QD and 8 receiving bid regimen) and to severe (6 receiving bid regimen) renal impaired subjects. Measurement of the urine to plasma ratio of creatinine using 24 hours urine sampling was calculated (CLCrea).
Imeglimin was administered in the morning time during 8 consecutive days in the group of subjects receiving 1000 mg once a day and in the morning and evening time during 7 consecutive days followed by a morning administration of 500 mg in the morning time on Day 8 in the group of subjects receiving 500 mg twice a day. Morning administrations on Days 1 and 8 were performed on a fasted state, after a 10 hours overnight fasting and during 4 hours after imeglimin administration.
Inclusion Criteria: For subjects with normal renal functions: CLCrea>80 mL/min based on calculation using 24-hrs sampling on day −2. For subjects with impaired renal function: CLCrea 50 to 80 mL/min for subjects with mild renal impairment, 30 to <50 mL/min for subjects with moderate renal impairment, and <30 mL/min for subjects with severe renal impairment based on calculation using 24-hrs sampling on day −2.
Pharmacokinetic parameters included apparent volume of distribution during the terminal phase following extravascular administration (Vz/F), area under the curve of the plasma concentration as a function of time (AUC0-t), the maximum observed concentration (Cmax), the time to maximum concentration (tmax), the plasma half-life (t1/2), the total body clearance of drug from plasma following extravascular administration (CL/F), and other parameters.
The urinary excretion parameters of imeglimin in subjects with differing degrees of renal impairment following QD or bid oral doses of imeglimin on day 8 are summarized in Table 3 and Table 4. Parameters measured include amount of unchanged drug excreted in urine as a function of time (Ae0-t), renal clearance (CLR), and the amount of unchanged drug excreted in urine during one dosing interval (Ae0-τ), and the percentage of administered dose excreted in urine during one dosing interval (fe0-τ).
For the evaluation of safety and tolerability of multiple oral doses of 1000 mg imeglimin QD (i.e. a total dose of 8000 mg imeglimin) or 500 mg imeglimin BID (i.e. a total dose of 7500 mg imeglimin), laboratory tests (hematology, clinical chemistry, urinalysis), determination of vital signs, ECG recordings, questioning of AEs and physical examinations were performed. […] The incidence of AEs observed within the course of the study was low. Overall 31 out of 51 subjects reported 54 treatment emergent AEs. Of these, only 15 were judged as likely related to the study drug. The majority (39 AEs) were assessed as unlikely related. Based on these low incidence no clear differences between the dose regimens and between the renal impairment groups can be shown.

[1] = 500 mg, 500 mg bid oral, Day 8, Part 1 normal renal function (N = 8), geometric mean
[2] = 500 mg, 500 mg bid oral, Day 8, Part 2 CKD Stage 4 (severe renal impairment; N = 5), geometric mean
[3] = 500 mg, 500 mg bid oral, Day 8, Part 2 normal renal function (N = 6), geometric mean
[4] = 1000 mg, 1000 mg QD oral, Day 8, CKD Stage 3 (moderate renal impairment; N = 6), geometric mean
[5] = 1000 mg, 1000 mg QD oral, Day 8, CKD stage 2 (mild renal impairment; N = 5), geometric mean
[6] = 1000 mg, 1000 mg QD oral, Day 8, normal renal function (N = 8), geometric mean
[7] = 1000 mg, 1000 mg QD oral, Day 8, normal renal function (N = 10), geometric mean

SMILES: C[C@H]1N=C(N(C)C)N=C(N)N1 [imeglimin, (6R)—N^2, N^2,6-trimethyl-3,6-dihydro-1,3,5-triazine-2,4-diamine]
- concentration at 8 day (500 mg, 500 mg bid oral, Day 8, Part 1 CKD Stage 3 (moderate renal impairment; N = 6), geometric mean, read-out: Cav): 1430 ng/mL
- Vd/F (500 mg, 500 mg bid oral, Day 8, Part 1 CKD Stage 3 (moderate renal impairment; N = 6), geometric mean): 922 L
- Tmax (500 mg, 500 mg bid oral, Day 8, Part 1 CKD Stage 3 (moderate renal impairment; N = 6)): 3.5 h
- Cmax [1]: 1030 ng/mL
- half-life [1]: 13.2 h
- AUC [1]: 7390 ng·h/mL
- concentration at 8 day (500 mg, 500 mg bid oral, Day 8, Part 1 normal renal function (N = 8), geometric mean, read-out: Cav): 616 ng/mL
- concentration at 8 day (500 mg, 500 mg bid oral, Day 8, Part 1 normal renal function (N = 8), geometric mean, read-out: Cmin): 202 ng/mL
- Vd/F [1]: 1290 L
- Tmax (500 mg, 500 mg bid oral, Day 8, Part 1 normal renal function (N = 8)): 3.5 h
- Cmax [2]: 2860 ng/mL
- half-life [2]: 17.6 h
- AUC [2]: 24800 ng·h/mL
- concentration at 8 day (500 mg, 500 mg bid oral, Day 8, Part 2 CKD Stage 4 (severe renal impairment; N = 5), geometric mean, read-out: Cav): 2070 ng/mL
- Vd/F [2]: 511 L
- Tmax (500 mg, 500 mg bid oral, Day 8, Part 2 CKD Stage 4 (severe renal impairment; N = 5)): 3.5 h
- Cmax [3]: 998 ng/mL
- half-life [3]: 15 h
- AUC [3]: 6970 ng·h/mL
- concentration at 8 day (500 mg, 500 mg bid oral, Day 8, Part 2 normal renal function (N = 6), geometric mean, read-out: Cav): 581 ng/mL
- Vd/F [3]: 1550 L
- Tmax (500 mg, 500 mg bid oral, Day 8, Part 2 normal renal function (N = 6)): 3.75 h
- AUC(0-t) [4]: 29100 ng·h/mL
- Cmax [4]: 2570 ng/mL
- half-life [4]: 23.4 h
- concentration at 8 day (1000 mg, 1000 mg QD oral, Day 8, CKD Stage 3 (moderate renal impairment; N = 6), geometric mean, read-out: Cav): 1210 ng/mL
- concentration at 8 day (1000 mg, 1000 mg QD oral, Day 8, CKD Stage 3 (moderate renal impairment; N = 6), geometric mean, read-out: Cmin): 335 ng/mL
- Vd/F [4]: 1160 L
- Tmax (1000 mg, 1000 mg QD oral, Day 8, CKD Stage 3 (moderate renal impairment; N = 6)): 5 h
- AUC(0-t) [5]: 20100 ng·h/mL
- Cmax [5]: 2050 ng/mL
- half-life [5]: 15 h
- concentration at 8 day (1000 mg, 1000 mg QD oral, Day 8, CKD stage 2 (mild renal impairment; N = 5), geometric mean, read-out: Cav): 838 ng/mL
- concentration at 8 day (1000 mg, 1000 mg QD oral, Day 8, CKD stage 2 (mild renal impairment; N = 5), geometric mean, read-out: Cmin): 178 ng/mL
- Vd/F [5]: 1070 L
- Tmax (1000 mg, 1000 mg QD oral, Day 8, CKD stage 2 (mild renal impairment; N = 5)): 4 h
- half-life [6]: 16.4 h
- Vd/F [6]: 1570 L
- AUC(0-t) [7]: 15400 ng·h/mL
- Cmax [7]: 1750 ng/mL
- concentration at 8 day (1000 mg, 1000 mg QD oral, Day 8, normal renal function (N = 10), geometric mean, read-out: Cmin): 115 ng/mL
- Tmax (1000 mg, 1000 mg QD oral, Day 8, normal renal function (N = 10)): 4 h
- CL renal (500 mg, 500 mg bid oral, Day 8, CKD Stage 2 (mild renal impairment) (N = 4), geometric mean (CV %), read-out: CLR): 323 mL/min
- CL renal (500 mg, 500 mg bid oral, Day 8, CKD Stage 3 (moderate renal impairment) (N = 6), geometric mean (CV %), read-out: CLR): 193 mL/min
- CL renal (500 mg, 500 mg bid oral, Day 8, CKD Stage 4 (severe renal impairment) (N = 5), geometric mean (CV %), read-out: CLR): 140 mL/min
- CL renal (500 mg, 500 mg bid oral, Day 8, normal renal function (N = 6), geometric mean (CV %), read-out: CLR): 548 mL/min
- CL renal (500 mg, 500 mg bid oral, Day 8, normal renal function (N = 8), geometric mean (CV %), read-out: CLR): 501 mL/min
- CL renal (1000 mg, 1000 mg QD oral, Day 8, CKD Stage 2 (mild renal impairment), N = 2, min, max, read-out: CLR (renal clearance)): 388 to 522 mL/min
- CL renal (1000 mg, 1000 mg QD oral, Day 8, CKD Stage 3 (moderate renal impairment) (N = 6), geometric mean, read-out: CLR (renal clearance)): 197 mL/min
- CL renal (1000 mg, 1000 mg QD oral, Day 8, normal renal function (N = 10), geometric mean, read-out: CLR (renal clearance)): 418 mL/min
- difference in exposure vs normal subjects (mild renal impairment): up to 1.5 fold
- difference in exposure vs normal subjects (moderate renal impairment): ≤ 2.3 fold
- AEs assessed as unlikely related (of 54 treatment emergent AEs): 39
- AEs judged as likely related to the study drug (of 54 treatment emergent AEs): 15
- Steady-state attained by (repeated dosing of 1000 mg QD and 500 mg bid): ≤ 6 days
- decrease in renal clearance vs normal subjects (severe renal impairment): ≤ 74%
- decrease in total oral body clearance vs normal subjects (severe renal impairment): up to 72%
- difference in exposure vs normal subjects (severe renal impairment): up to 3.6 fold
- general safety and tolerability assessment (total daily dose of 1000 mg over 8 days): good or very good tolerability
